# Test results published in US20180344702A1, “METHODS FOR TREATING PATIENTS WITH HEMATOLOGIC MALIGNANCIES” (Aptose Biosciences, Inc., priority 2017, published 2018).
# Key:
# [1] = system: Ba/F3-ITD + 842 (ITD + Y842C); assay: Antiproliferative activity (Table 6); format: cell-based, Murin; conditions: 72 h
# [2] = molecular target: BTK C481S (Homo sapiens, UniProt Q06187, C481S); assay: Inhibition of BTK, kinase IC50; format: biochemical; set-up: RBC (only as the name of the general kinase protocol)
# BTK C481S, sequence (Q06187 whole entry C481S): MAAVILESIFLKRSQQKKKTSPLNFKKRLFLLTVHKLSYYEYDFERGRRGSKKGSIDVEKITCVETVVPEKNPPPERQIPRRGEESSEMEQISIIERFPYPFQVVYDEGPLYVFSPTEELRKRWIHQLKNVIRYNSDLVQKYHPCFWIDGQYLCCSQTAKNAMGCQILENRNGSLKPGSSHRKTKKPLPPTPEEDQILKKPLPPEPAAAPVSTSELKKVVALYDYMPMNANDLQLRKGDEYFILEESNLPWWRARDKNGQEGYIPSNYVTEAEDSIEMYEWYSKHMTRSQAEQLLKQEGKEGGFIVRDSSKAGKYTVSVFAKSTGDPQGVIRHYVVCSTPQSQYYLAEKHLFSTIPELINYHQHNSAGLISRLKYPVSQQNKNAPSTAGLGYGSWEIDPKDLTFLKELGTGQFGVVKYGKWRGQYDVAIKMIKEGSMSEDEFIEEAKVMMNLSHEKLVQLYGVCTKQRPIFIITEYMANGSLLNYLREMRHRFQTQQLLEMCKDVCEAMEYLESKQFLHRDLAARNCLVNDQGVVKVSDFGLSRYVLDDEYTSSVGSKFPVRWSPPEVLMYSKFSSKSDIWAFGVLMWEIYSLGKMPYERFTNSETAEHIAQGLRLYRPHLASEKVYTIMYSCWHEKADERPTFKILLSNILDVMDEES
# Experimental: (§1) RBC HotSpot Kinase Assay Protocol:
# (§2) Reagents used: Base Reaction buffer; 20 mM Hepes (pH 7.5), 10 mM MgCl2, 1 mM EGTA, 0.02% Brij35, 0.02 mg/ml BSA, 0.1 mM Na3VO4, 2 mM DTT, 1% DMSO. Required cofactors are added individually to each kinase reaction.
# (§3) Compound 7 was dissolved in 100% DMSO to a specified concentration. The serial dilution was conducted by epMotion 5070 in DMSO. The substrate was freshly prepared in Reaction Buffer and any required cofactors to the substrate solution were added. The kinase was added to the solution and gently mixed. Compound 7 was added in 100% DMSO into the kinase reaction mixture by Acoustic technology (Echo550; nanoliter range), and incubated for 20 min at room temperature. ^33P-ATP (Specific activity 10 μCi/μl) was added into the reaction mixture to initiate the reaction, which was incubated for 2 hours, whereupon kinase activity was detected by the filter-binding method.
# [3] = system: Kasumi-1 (FLT3-WT); assay: Antiproliferative activity (Table 6); format: cell-based; conditions: Homo sapiens, Kasumi 1, 72 h
# [4] = system: Daudi; assay: Cytotoxicity, MTS cell viability; format: cell-based; conditions: Homo sapiens, 72 h, Burkitt's, 3 days MTS
# Experimental: (§4) Cells were seeded in a 96 well plate and treated with either vehicle (DMSO) or compound 7 at 10 different concentrations for 3 days at 37° C. and 5% CO2. Cell viability was assessed using CellTiter 96 AQueous one solution (MTS Promega Cat#G3581), and IC50 values calculated using GraphPad Prism 7 software.
# (§5) Cytotoxicity procedure: Cells were seeded in 96-well plate and treated with vehicle DMSO or Compound 7 at a specified concentration and incubated for 72 hours.
# [5] = system: K562; assay: Cytotoxicity, MTS cell viability; format: cell-based; conditions: Homo sapiens, 72 h, CML, 3 days MTS
# Experimental: as §4, §5
# [6] = system: SU-DHL6; assay: Cytotoxicity, MTS cell viability; format: cell-based; conditions: Homo sapiens, SU-DHL-6, 72 h, DLBCL / GCB-DLBCL, 3 days MTS
# Experimental: as §4, §5
# [7] = system: MEC-1; assay: Cytotoxicity, MTS cell viability; format: cell-based; conditions: CLL, 3 days MTS
# Experimental: as §4, §5
# [8] = molecular target: T1, FLT3(WT) (Homo sapiens, UniProt P36888); assay: Binding constant (Kd), competition binding with qPCR readout
# T1 sequence (P36888 27-993): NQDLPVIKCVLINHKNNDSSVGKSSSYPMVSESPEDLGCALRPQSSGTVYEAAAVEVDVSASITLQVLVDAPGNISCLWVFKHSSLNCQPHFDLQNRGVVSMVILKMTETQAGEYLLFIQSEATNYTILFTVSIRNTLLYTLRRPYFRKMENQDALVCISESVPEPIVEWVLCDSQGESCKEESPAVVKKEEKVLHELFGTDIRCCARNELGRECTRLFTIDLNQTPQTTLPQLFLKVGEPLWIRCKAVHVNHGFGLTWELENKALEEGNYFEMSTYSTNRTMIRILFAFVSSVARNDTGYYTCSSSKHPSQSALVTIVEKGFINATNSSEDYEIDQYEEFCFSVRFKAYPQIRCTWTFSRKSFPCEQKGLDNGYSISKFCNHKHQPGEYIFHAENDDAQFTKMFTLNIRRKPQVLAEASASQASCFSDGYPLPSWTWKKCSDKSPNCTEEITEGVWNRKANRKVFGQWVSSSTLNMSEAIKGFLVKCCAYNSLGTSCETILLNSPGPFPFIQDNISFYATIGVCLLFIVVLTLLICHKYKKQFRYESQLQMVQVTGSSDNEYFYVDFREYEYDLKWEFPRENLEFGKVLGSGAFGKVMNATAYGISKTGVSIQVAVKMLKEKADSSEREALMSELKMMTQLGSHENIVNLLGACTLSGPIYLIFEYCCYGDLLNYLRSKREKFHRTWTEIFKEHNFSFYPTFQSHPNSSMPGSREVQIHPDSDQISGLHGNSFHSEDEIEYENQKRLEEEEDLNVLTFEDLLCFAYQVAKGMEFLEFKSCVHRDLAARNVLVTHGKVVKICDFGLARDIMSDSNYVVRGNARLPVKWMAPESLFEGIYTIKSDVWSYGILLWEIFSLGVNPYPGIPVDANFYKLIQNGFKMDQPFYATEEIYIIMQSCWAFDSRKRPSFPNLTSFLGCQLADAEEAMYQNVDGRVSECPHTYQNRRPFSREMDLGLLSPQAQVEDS
# [9] = molecular target: T1, FLT3(WT); assay: Inhibition of FLT3, kinase IC50; format: biochemical
# Experimental: as §1, §2, §3
# [10] = system: Aurora kinase in Mino, Ramos and SU-DHL6; assay: Aurora kinase inhibition in B-cell lines (Western blot); format: cell-based; conditions: FIGS. 13A-13C
# Experimental: Inhibition of Aurora kinase activity was measured by western blotting for phosphorylation levels of Aurora kinases or and down-stream targets and by cell cycle and DNA content analysis. Whole cell extracts from Compound 7 treated cells were resolved by gel electrophoresis and transferred to nitrocellulose membranes and inhibition of Aurora kinase A/B and H3S10 phosphorylation was detected with specific antibodies. DNA synthesis and cell cycle phase was assessed by staining compound 7 of vehicle treated cells with 5-ethynyl-2′deoxyuridine (Edu) Alexa Fluor 488 and PI.
# [11] = system: MOLM14 (FLT3-ITD, t(9:11)); assay: Antiproliferative activity (Table 6); format: cell-based; conditions: Homo sapiens, MOLM-14, 72 h
# [12] = system: Ba/F3-ITD + 691 (ITD + F691L); assay: Antiproliferative activity (Table 6); format: cell-based, Murin; conditions: 72 h
# [13] = system: BTK pathway in MV4-11 cells; assay: Western blot analysis in MV4-11 cells; format: cell-based, human; conditions: 0.5, 5.0, and 50 nM, FIG. 2
# Experimental: (§6) Immunoblot assays: Cells were treated with Compound 7 at various concentrations and collected for cell lysates. The total and phosphorylated levels of the indicated proteins were determined by Western Blot.
# [14] = system: FLT3 pathway in MV4-11 cells; assay: Western blot analysis in MV4-11 cells; format: cell-based, human; conditions: FIG. 1
# Experimental: as §6
# [15] = system: Aurora kinase in MV4-11 cells; assay: Cell signaling Western blot; format: cell-based, human; conditions: FIG. 24
# Experimental: as §6
# [16] = system: NOMO-1 cells; assay: Cell-cycle dysregulation (flow cytometry); format: cell-based; conditions: dose-dependent
# Experimental: (§7) Cell-cycle analysis: Cells were treated with vehicle, DMSO or Compound 7 and were stained with PI and EdU, and then analyzed by flow cytometry to determine the phases of cell cycle.
# [17] = system: KG-1 cells; assay: Cell-cycle dysregulation (flow cytometry); format: cell-based; conditions: dose-dependent
# Experimental: as §7
# [18] = system: isogenic BA/F3 cells with FLT3 mutations; assay: Cell-cycle dysregulation (flow cytometry); format: cell-based; conditions: dose-dependent
# Experimental: as §7
# [19] = system: Ba/F3 cells transfected with FLT3 ITD; assay: Cytotoxicity in isogenic transfected Ba/F3 cells (Table 4); format: cell-based, Murin; conditions: Mus musculus, BaF3, read-out: IC50 in Transfected Ba/F3 cells, FLT3 ITD
# [20] = Pharmacokinetic study in rat; format: in vivo
# [21] = system: Ba/F3 cells transfected with FLT3 WT; assay: Cytotoxicity in isogenic transfected Ba/F3 cells (Table 4); format: cell-based, Murin; conditions: Mus musculus, BaF3, read-out: IC50 in Transfected Ba/F3 cells, FLT3 WT
# [22] = system: MV4-11 (FLT3-ITD, t(4:11)); assay: Antiproliferative activity (Table 6); format: cell-based; conditions: Homo sapiens, MV4-11, 72 h
smiles,measurement,setting,value
"Cc1cnc(-c2ccc(-c3ccc(NC(=O)Nc4c(F)cc(F)cc4F)cc3F)c3c2C(=O)NC3)[nH]1 [Compound 7, 1-{3-fluoro-4-[7-(5-methyl-1H-imidazol-2-yl)-1-oxo-2,3-dihydro-1H-isoindol-4-yl]-phenyl}-3-(2,4,6-trifluorophenyl)urea]",IC50,[1],0.73 nM
same,IC50,[2],2.52 nM
same,IC50,[3],22 nM
same,IC50,[4],166 nM
same,IC50,[5],12.9 µM
same,IC50,[6],122 nM
same,IC50,[7],3.8 µM
same,IC50,"[7]; Homo sapiens, MEC1, 72 h",3.8 µM
same,Kd,[8],0.24 nM
same,IC50,[9],8.75 nM
same,Aurora kinase inhibition (phosphorylation patterns),[10],effective as an Aurora Kinase inhibitor
same,IC50,[11],0.92 nM
same,IC50,[12],0.43 nM
same,Inhibition of BTK pathway (Western blot),[13],inhibits BTK pathway
same,Inhibition of FLT3 pathway (Western blot),[14],inhibits FLT3 pathway
same,Aurora kinase activity and signaling (Western blot),[15],inhibits Aurora kinase activity and signaling
same,Cell-cycle dysregulation,[16],induce cell-cycle dysregulation
same,Cell-cycle dysregulation,[17],induce cell-cycle dysregulation
same,Cell-cycle dysregulation,[18],induce cell-cycle dysregulation
same,IC50,[19],0.5 nM
same,Exposure,[20]; 2 mg/kg administered by i.v.,Reasonable exposure
same,AUC,"[20]; administered orally, FIG. 5",AUC improves in a dose-dependent manner
same,IC50,[21],11.3 nM
same,IC50,[22],0.17 nM
